The nature of data set [1]: Irradiation of caged nucleosides, conversion estimated by HPLC. The data set is classed as physicochemical. As to conditions: 500 μM in water/acetone/acetonitrile; 405 nm 20-60 s or 365 nm 5-20 s; LED 3 W. On the procedure: Conversions from caged compounds to uncaged compounds were estimated by integrating the peaks of a UV-spectrum that resulted from the HPLC analysis (Agilent infinity 1260).
When irradiating isolated N2-modified compounds, a final volume of 10 μL in double distilled water was irradiated using a LED (λmax=365 nm/405 nm/420 nm) and then analyzed by RP-HPLC.
A 500 μM solution of the compound 15, nitropiperonylmethyl fused via a carbamate moiety to guanosine (denoted “NPOM guanosine” or “caged guanosine”), in water/acetone/acetonitrile was irradiated in a 10 μL volume with either 405 nm for 20 s, 40 s or 60 s or with 365 nm for 5 s, 10 s or 20 s, respectively, using a LED power (input 3W and output 147 mW/cm^2). HPLC analysis was performed as described above.
Samples of the adenosine fused via a carbamate moiety to 7-(diethylamino)-4-(hydroxymethyl)-coumarin (DEACM) were irradiated with 450 nm. […] The peak at 21.1 min corresponds to the obtained compound and the peaks at 11.1 and 21.9 min correspond to the photo-cleavage products adenosine and DEACM-OH, respectively.

Data set [2] can be described thus: Stability of the carbamate linkage in water and HeLa cell lysate (HPLC). The data set is classed as in vitro ADME. As to conditions: water or HeLa cell lysate, 24 h incubation at 37° C. As to the method:
To investigate the stability of the carbamate linker in cellular environment the compound 15, nitropiperonylmethyl fused via a carbamate moiety to guanosine, was studied in water and cell lysate. The cell lysate was produced by ultrasonication of HeLa cells (5*10^6 cells) in 400 μL 1×PBS buffer. The compound 15, NPOM-guanosine, suspended in water or cell lysate after 24 h incubation at 37° C. was analysed by HPLC-analysis as described above.
As can be taken from the FIG. 8, the compound 15 was stable under these conditions.

Data set [3] is described as follows: Irradiation of photocleavable 5′-cap analogs, LC-MS (triple quad). The data set is classed as physicochemical. As to conditions: 30 seconds, 365 nm (3 W). On the procedure:
For determination of mass spectra, HPLC—triple-quadrupole mass spectrometry system was used. The system consists of Agilent 1260 Infinity II with dual λ absorbance detector (G7114A) HPLC part and Agilent Ultivo mass spectrometer with JetStream ion source (type of ESI). Column which was used: Agilent Poroshell 120 EC-C18 (3.0×150/2.7 μm). The polar compounds were tested by LC method (eluent 20 mM NH40Ac buffer (pH=6)/CH3CN, gradient 0-30%, column temperature=20° C.).
Samples of the photocleavable 5′-cap analog of formula (22) were irradiated for 30 seconds with 365 nm (3 W).

Another data set deals with Reticulocyte Lysate. Put plainly: In vitro translation of capped FLuc-mRNA and luminescence measurement. It is filed as biochemical. As to conditions: 30 seconds at 365 nm. On the procedure: In vitro translation was performed using a eukaryotic cell free protein expression kit from Reticulocyte Lysate (Invitrogen). Experiments were performed in 12.5 μL total volume containing 20 ng of the corresponding FLuc-mRNAs, 50 μM L-methionine and 150 mM potassium acetate. Samples were mixed with 8.5 μL of the reticulocyte lysate and incubated for 90 min at 30° C. Afterwards, 2 μL of the respective translation mix were used in subsequent luminescence measurement. The translation efficiency of the reporter mRNAs was assessed in a luciferase assay using Beetle-juice Luciferase Assay Firefly (pjk). Luciferase activity was determined by adding 50 μL freshly prepared substrate solution to the translation mixture. Luminescence was monitored using a Tecan Infinite® m1000pro microplate reader with an acquisition time of 3 s (duration of signal acquisition).
The photocleavable 5′-cap analog of formula (7) was used for in vitro transcription to make FLuc mRNA as described above. This was used for in vitro translation and Luminescence measurement as described above. The commercial non-modified cap analog denoted “m^7GpppG” (Jena Bioscience) was used as positive control. Samples were irradiated for 30 seconds. The ApppG capped mRNA, which is not recognized by the translation initiation factor served as negative control, which is substracted from the other samples as it represents background activity. The experiment was performed in quadruplicates. The FLuc-mRNA capped with the photocleavable 5′-cap analog of formula (7) is denoted “ONB”.
The in vitro translation assay and luminescence measurement was performed as described above using the photocleavable 5′-cap analog of formula (12). The capped mRNA was denoted “DMNB-m^7GpCH2ppG capped FLuc-mRNA”. Samples were irradiated for 30 seconds (365 nm) or 60 seconds (405 nm). The commercial non-modified cap analog denoted “m^7GpppG” (Jena Bioscience) was used as positive control and all other samples were normalized to it. The ApppG capped mRNA, which is not recognized by the translation initiation factor served as negative control, which is substracted from the other samples as it represents background activity. The experiment was performed in triplicates, except *DMNB-m7GpCH2ppG (365 nm) which was a single determination.
The in vitro translation assay in reticulocyte lysate and luminescence measurement was performed as described above using m^7GpppG capped FLuc-mRNA caged with the photocleavable 5′-cap analog of formulas (22) and (25) (denoted “DMNB m^7GpppG” and “NPOM m^7GpppG”). Samples were irradiated for 30 seconds at 365 nm. The ApppG capped mRNA, which is not recognized by the translation initiation factor served as negative control, which was substracted from the other samples as it represents background activity. The values were normalized to the non-irradiated sample with m^7GpppG capped mRNA (100%). The experiment was performed in triplicates.
The in vitro translation assay in reticulocyte lysate and luminescence measurement was performed as described above using m^7GpppG capped FLuc-mRNA with modified nucleotides m^5C and N^1methyl-pseudouridine caged with the photocleavable 5′-cap analog of formulas (22) and (25) (denoted “DMNB m^7GpppG mod” and “NPOM m^7GpppG mod”). Samples were irradiated for 30 seconds at 365 nm. The ApppG capped mRNA, which is not recognized by the translation initiation factor served as negative control, which was substracted from the other samples as it represents background activity. The values were normalized to the non-irradiated sample with m^7GpppG capped mRNA (100%). The experiment was performed in triplicates.

Another data set has as its system HeLa cells. Put plainly: Translation and irradiation in HeLa cells of capped GLuc-mRNA (luminescence). The data set is classed as cell-based. As to conditions: HeLa; GLuc-mRNA with regular or modified nucleotides; 30 seconds (365 nm). As to the method:
HeLa cells were transferred to a 96 well plate 20 h prior transfection. 30.000 cells/well were cultivated in growth Media (MEM, 10% FCS, 1% glutamine, 1% Penicillin, 1% Streptomycine, […] non-essential aminoacids). For transfection the growth media was exchanged for MEM-media with 0.6 μL Metafectene® Pro (0.3 μL) and 100 ng mRNA was added per well. 6 h after transfection of the cells the media was exchange by MEM-media, followed by irradiation and another MEM-media exchange. After 24 h post transfection the supernatant in the wells was used for further luminescence measurements. Values of the ApppG capped mRNA represent cap independent translation and were therefore subtracted from the other values.
In cell translation and irradiation in cell culture of mammalian HeLa cells was performed as described above. GLuc mRNA capped with the photocleavable 5′-cap analog of formula (12) (“DMNB”) was used and the commercial non-modified cap analog denoted “m^7GpppG” (Jena Bioscience) was used as a control. HeLa cells were either transfected with the DMNB-m^7GpCH2ppG capped mRNA (irradiated and non-irradiated before transfection) or with the natural capped mRNA (irradiated and non-irradiated before transfection). Irradiation of the mRNA containing the natural cap was performed (5 V, 600 mA) with 365 nm for 30 seconds to evaluate the resulting influence on translational efficiency. DMNB-m^7GpCH2ppG capped mRNA was irradiated in the same way or with 405 nm for 60 seconds. The ApppG capped mRNA, which is not recognized by the translation initiation factor served as negative control, which is substracted from the other samples as it represents background activity. The values were normalized to the non-irradiated m^7GpppG capped sample (100%). The experiment was performed in triplicates.
The luminescence measurement of cell culture media after translation in cells transfected with modified and non-modified GLuc mRNA was repeated using irradiation with 365 nm/405 nm for different periods of time. HeLa cells were either transfected with the GLuc mRNA capped with the photocleavable 5′-cap analog of formula (12) denoted “DMNB-m^7GpCH2ppG capped mRNA” or with the natural m^7GpppG capped mRNA. Cells transfected with the natural capped mRNA were irradiated (5 V, 600 mA) with 365 nm/405 nm for 30 s or 60 s to evaluate the resulting influence on translational efficiency. Cells transfected with DMNB-m^7GpCH2ppG capped mRNA were irradiated in the same way. The ApppG capped mRNA, which is not recognized by the translation initiation factor served as negative control, which is substracted from the other samples as it represents background activity. The values were normalized to the non-irradiated cells with m^7GpppG capped mRNA (100%). The experiment was performed in triplicates.
Luminescence measurement of cell culture media after translation of transfected modified and non-modified GLuc mRNA in cells. HeLa cells were either transfected with the NPOM-m^7GpCH2ppG capped mRNA or with the natural m^7GpppG capped mRNA. Cells transfected with the natural capped mRNA were irradiated (5 V, 600 mA) with 365 nm/405 nm for different periods of time to evaluate the resulting influence on translational efficiency. Cells transfected with NPOM-m^7GpCH2ppG capped mRNA were irradiated in the same way. The ApppG capped mRNA, which is not recognized by the translation initiation factor served as negative control, which is substracted from the other samples as it represents background activity. […]

For another data set, the system named is HEK293T cells. Put plainly: In cell translation assay in HEK293T cells of capped GLuc-mRNA (luminescence). As to conditions: GLuc-mRNA with regular or modified nucleotides, 30 seconds (365 nm). The data set is classed as cell-based. The source says:
In cell translation assay in HeLa and HEK293T cells with m^7GpppG capped GLuc-mRNA caged with the photocleavable 5′-cap analog of formula (22) (denoted “DMNB m^7GpppG”) with either A) regular nucleotides or B) modified nucleotides m^5C and N^1methyl-pseudouridine. Samples were irradiated for 30 seconds (365 nm). The ApppG capped mRNA, which is not recognized by the translation initiation factor served as negative control, which is substracted from the other samples as it represents background activity. The values were normalized to the non-irradiated sample with m^7GpppG capped mRNA (100%). The experiment was performed in triplicates.

SMILES strings stand for the structures.

As to `CC(OC(=O)Nc1nc2c(ncn2[C@@H]2O[C@H](CO)[C@@H](O)[C@H]2O)c(=O)[nH]1)c1cc2c(cc1[N+](=O)[O-])OCO2` (stereo partly shown) [compound 15, N^2-(1-(6-nitrobenzo[d][1,3]dioxol-5-yl)ethyl)oxycarbonylguanosine], the “conversion of caged guanosine to guanosine upon irradiation” value in data set [1] was “cleaved by irradiation and that guanosine is regained without side products”. The “stability (HPLC)” value in data set [2] is on record as “stable”.
Consider `COc1cc(COC(=O)Nc2nc3c(c(=O)[nH]2)[n+](C)cn3[C@@H]2O[C@H](COP(=O)(O)OP(=O)(O)OP(=O)(O)OC[C@H]3O[C@@H](n4cnc5c(=O)[nH]c(N)nc54)C(O)C3O)C(O)C2O)c([N+](=O)[O-])cc1OC` (stereo partly shown) [compound 22, P1-(N^2-(4,5-Dimethoxy-2-nitrobenzyl)oxycarbonyl-7-methylguanosin-5′-yl)-P3-guanosin-5′-yl triphosphate], for which the “uncaging of the cap after irradiation (LC-MS)” value in data set [3] is recorded as “partially uncaged”. Moreover, the “in vitro translation (luminescence) after irradiation” value is “marked increase of translation” in the data set on Reticulocyte Lysate (capped FLuc-mRNA with modified nucleotides m^5C and N^1methyl-pseudouridine); “marked increase of translation” in the data set with Reticulocyte Lysate (capped FLuc-mRNA, regular nucleotides). In addition, the “translation in cells (luminescence) after irradiation” value in the data set with HeLa cells and with HEK293T cells was “marked increase of translation” throughout.
